The values that follow come from patent publication US12662451B2, “Chemical compounds and uses thereof” (GLAXOSMITHKLINE INTELLECTUAL PROPERTY (NO.4) LIMITED, priority 2023, dated 2026).

Molecules are shown by their SMILES. Structures can show the parent of a compound that is named as a salt. Where two headings read alike, the source gives them in different places.

Series [1] concerns SW48 human colorectal cancer cells (MSI-H cancer cells). Description: SW48 cell viability, CellTiter-Glo, 120 hours (Example B). The following applies: for CC50: Homo sapiens.
Series [2] addresses T1, recombinant full-length WRN protein (1-1432) (Homo sapiens, UniProt Q14191).
T1 construct: recombinant full-length WRN protein (1-1432)
Description: WRN unwinding activity, fluorogenic 384-well assay (Example A). The class given is biochemical. The following applies: WRN unwinding activity, 4 hr; Table 2; read-out: 4 hr UNW pIC50 (converted). The method, boiled down:
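200 pM enzyme (2× stock) preincubated with compound 4 h at ambient temperature, then 200 μM ATP and 12 nM quenched TAMRA-labelled dsDNA (2× stocks) added for 60 min; EDTA-quenched. Buffer 25 mM Tris pH 8.0, 5 mM NaCl, 2 mM MgCl2. Fluorescence at 525/598 nm; pIC50 from four-parameter fit.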

The subject of series [3] is SW48 human colorectal cancer cells. Briefly: Calculated free drug potency in SW48 cell assay, corrected with media free fraction (Example C). The class given is cell-based. The following applies: for CC50: Homo sapiens, SW48, SW48 pCC50 corrected with measured free fraction in cell assay media. A digest of the protocol:
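Compound spiked at nominal 1 μM into cell assay medium and dialysed against PBS (100 mM sodium phosphate, 150 mM NaCl, pH 7.4) by rapid equilibrium dialysis, 4 h, 37 °C, shaking. Percent unbound from LC-MS/MS peak area ratios (240 min vs 0 min); cell assay concentrations corrected by this free fraction.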

Series [4] in a line: Cell culture media unbound percentage and stability by rapid equilibrium dialysis (Example C). The class given is in vitro ADME. The following applies: bovine, cell assay medium (RPMI-1640 with 10% fetal bovine serum), pH 7.4, rapid equilibrium dialysis, 4 hours at 37° C., read-out: Cell Culture Media Binding (% unbound). The method, boiled down: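 Compound spiked into cell culture medium at nominal 1 μM and dialysed against PBS (100 mM sodium phosphate + 150 mM NaCl, pH 7.4) by rapid equilibrium dialysis, triplicate, 4 h at 37° C with shaking. LC-MS/MS peak area ratios gave percent unbound (receiver/donor) and percent stability (240 min vs 0 min).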
(In equilibrium dialysis only unbound substance equilibrates across the membrane.)

Where [5] appears, read: SW48, 120 h, read-out: SW48 pCC50, SW48 cell viability, 120 hours incubation (converted), Table 2.
The mark [6] stands for this setting: SW48, read-out: SW48 pCC50, measured potency from Example B, as repeated in Table 3 (converted).
Where [7] appears, read: SW48 cell viability, 120 hours incubation, Table 2.

T1 sequence (Q14191 whole entry): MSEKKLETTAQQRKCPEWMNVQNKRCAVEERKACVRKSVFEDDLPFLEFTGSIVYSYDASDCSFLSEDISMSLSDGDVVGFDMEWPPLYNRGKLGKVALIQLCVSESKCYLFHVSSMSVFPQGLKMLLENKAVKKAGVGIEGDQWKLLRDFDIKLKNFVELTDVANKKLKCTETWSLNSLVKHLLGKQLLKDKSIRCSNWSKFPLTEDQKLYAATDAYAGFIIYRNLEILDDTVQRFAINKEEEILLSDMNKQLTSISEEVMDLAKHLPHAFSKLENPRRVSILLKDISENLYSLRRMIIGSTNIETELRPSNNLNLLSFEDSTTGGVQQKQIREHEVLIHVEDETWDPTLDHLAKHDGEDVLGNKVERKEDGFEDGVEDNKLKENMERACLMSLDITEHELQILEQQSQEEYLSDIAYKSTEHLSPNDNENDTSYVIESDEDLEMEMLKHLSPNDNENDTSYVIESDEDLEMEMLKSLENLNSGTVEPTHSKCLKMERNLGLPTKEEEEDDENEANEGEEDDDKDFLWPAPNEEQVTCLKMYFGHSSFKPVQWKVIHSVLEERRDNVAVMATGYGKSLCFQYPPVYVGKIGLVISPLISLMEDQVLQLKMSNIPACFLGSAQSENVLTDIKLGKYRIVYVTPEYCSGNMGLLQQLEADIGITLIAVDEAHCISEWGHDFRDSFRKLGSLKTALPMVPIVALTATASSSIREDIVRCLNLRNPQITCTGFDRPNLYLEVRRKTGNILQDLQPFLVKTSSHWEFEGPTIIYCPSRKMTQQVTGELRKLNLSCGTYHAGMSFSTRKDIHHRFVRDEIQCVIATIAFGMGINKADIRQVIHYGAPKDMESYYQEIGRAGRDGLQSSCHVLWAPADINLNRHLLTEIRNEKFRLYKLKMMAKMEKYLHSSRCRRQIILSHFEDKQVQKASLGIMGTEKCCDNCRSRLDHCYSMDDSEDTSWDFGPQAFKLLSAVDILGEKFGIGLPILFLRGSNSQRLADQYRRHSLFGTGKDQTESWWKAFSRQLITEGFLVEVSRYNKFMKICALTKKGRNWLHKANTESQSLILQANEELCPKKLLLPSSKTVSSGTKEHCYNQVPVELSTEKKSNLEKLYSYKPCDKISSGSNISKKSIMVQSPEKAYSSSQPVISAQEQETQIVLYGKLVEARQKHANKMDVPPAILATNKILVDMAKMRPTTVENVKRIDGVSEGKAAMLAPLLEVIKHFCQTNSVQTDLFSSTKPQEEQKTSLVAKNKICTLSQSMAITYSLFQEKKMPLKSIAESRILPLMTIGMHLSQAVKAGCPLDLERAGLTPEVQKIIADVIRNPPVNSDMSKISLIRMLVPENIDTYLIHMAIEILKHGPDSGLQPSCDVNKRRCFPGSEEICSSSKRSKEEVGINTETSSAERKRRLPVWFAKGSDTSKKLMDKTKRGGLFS

As to `Cc1nc2cc(S(=O)(=O)N(C)c3ccc([C@H]4C[C@@H](C#N)C[C@@H](C(=O)Nc5ccc(C(F)(F)F)cc5F)[C@@H]4C(=O)O)cc3)ccc2n1C` (single isomer, unassigned) [Example 287], the CC50 was 398 nM in series [1] (setting [5]), 398 nM in series [1] (setting [6]) and 61.7 nM in series [3]. Moreover, in series [2], the IC50 is 1.58 nM. Besides, in series [4], the fraction unbound at 4 h, 1 µM was 0.156.

With `CC(=O)N[C@@H]1C[C@@H](COc2ccc(C(F)(F)F)cc2)[C@H](C(=O)O)[C@@H](c2ccc(N(C)S(=O)(=O)c3ccc4c(c3)nc(C)n4C)cc2)C1` (single isomer, unassigned) [Example 298], the CC50 was 10000 nM in series [1] (setting [5]) and 1510 nM in series [3]. In addition, the IC50 in series [2] was 501 nM. For the same compound, the fraction unbound at 4 h, 1 µM in series [4] was 0.151.

Consider `Cc1nc2cc(S(=O)(=O)N(C)c3ccc([C@H]4C[C@@H](N5CCOCC5)C[C@@H](C(=O)Nc5ccc(C(F)(F)F)cc5F)[C@@H]4C(=O)O)cc3)ccc2n1C` (single isomer, unassigned) [Example 337], for which the “SW48 pCC50” value came to 6.8 in series [1] (setting [7]) and 6.8 in series [1] (measured potency from Example B, as repeated in Table 3). The IC50 in series [2] is 1.58 nM. Further, in series [3] (SW48 pCC50 corrected with measured free fraction in cell assay media), the “Free Drug SW48 pCC50” value is reported as 7.45. In addition, the fraction unbound at 4 h, 1 µM in series [4] is 0.224.

As to `Cc1nc2cc(S(=O)(=O)N(C)c3ccc([C@H]4C[C@@H](OCC5CC6CCC(C5)O6)C[C@@H](C(=O)Nc5ccc(C(F)(F)F)cc5F)[C@@H]4C(=O)O)cc3)ccc2n1C` (single isomer, unassigned) [Example 360], the CC50 in series [1] (setting [5]) is 63.1 nM; in series [1] (setting [6]), 63.1 nM; in series [3] it was 5.89 nM. For the same compound, in series [2], the IC50 is 5.01 nM. Besides, in series [4], the fraction unbound at 4 h, 1 µM worked out at 0.0942.

Take `Cc1nc2cc(S(=O)(=O)N(C)c3ccc([C@@H]4CC(F)(F)C[C@H](C(=O)Nc5ccc(C(F)(F)F)cc5F)[C@H]4C(=O)O)cc3)ccc2n1C` (single isomer, unassigned) [Example 364]: the figures for the CC50 in series [1] (setting [5]) and in series [3] were 10000 nM and 1120 nM, respectively. In series [2], the IC50 was 631 nM. Also, the fraction unbound at 4 h, 1 µM in series [4] amounted to 0.113.

For the compound `Cc1nc2cc(S(=O)(=O)N(C)c3ccc([C@H]4CCC[C@@H](C(=O)Nc5ccc(C(F)(F)F)cc5F)[C@@H]4C(=O)O)cc3F)ccc2n1C` (single isomer, unassigned) [Example 368], the values for the CC50 in series [1] (setting [5]), in series [1] (setting [6]) and in series [3] were 794 nM, 794 nM and 102 nM, respectively. Besides, the IC50 in series [2] was 5.01 nM. In addition, the fraction unbound at 4 h, 1 µM in series [4] was 0.128.

In the case of `Cc1nc2cc(S(=O)(=O)N(C)c3ccc([C@H]4CCC[C@@H](C(=O)Nc5ccc(C(F)(F)F)cc5F)[C@@H]4C(=O)O)c(F)c3)ccc2n1C` (single isomer, unassigned) [Example 374], the CC50 in series [1] (setting [6]) is 398 nM; in series [3], 44.7 nM. Also, in series [1] (setting [7]), the “SW48 pCC50” value was found to be 6.4. The IC50 in series [2] was 3.98 nM. Also, the fraction unbound at 4 h, 1 µM in series [4] came out at 0.113.

Take `Cc1nc2cc(S(=O)(=O)N(C)c3ccc([C@@H]4C[C@@H]5COC[C@@H]5[C@@H](C(=O)Nc5ccc(C(F)(F)F)cc5F)[C@@H]4C(=O)O)cc3)ccc2n1C` (single isomer, unassigned) [Example 389]: the CC50 is 2510 nM in series [1] (setting [5]), 2510 nM in series [1] (setting [6]) and 589 nM in series [3]. Besides, the IC50 in series [2] was 5.01 nM. In addition, the fraction unbound at 4 h, 1 µM in series [4] is 0.235.

With `CCCO[C@@H]1C[C@H](c2ccc(N(C)S(=O)(=O)c3ccc4c(c3)nc(C)n4C)cc2)[C@@H](C(=O)O)[C@H](C(=O)Nc2ccc(C(F)(F)F)cc2F)C1` (stereo in doubt) [Example 151, rel-(1R,2R,4R,6S)-2-((2-fluoro-4-(trifluoromethyl)phenyl)carbamoyl)-4-propoxy-6-(4-((N,1,2-trimethyl-1H-benzo[d]imidazole)-5-sulfonamido)phenyl)cyclohexane-1-carboxylic acid], the values for the CC50 in series [1] (setting [5]), in series [1] (setting [6]) and in series [3] were 501 nM, 501 nM and 11.7 nM, respectively. Further, the IC50 in series [2] is 3.16 nM. For the same compound, the fraction unbound at 4 h, 1 µM in series [4] is 0.0233.

As to `Cc1nc2cc(S(=O)(=O)N(C)c3ccc([C@H]4C[C@@H](OCC5CCC5)C[C@@H](C(=O)Nc5ccc(C(F)(F)F)cc5F)[C@@H]4C(=O)O)cc3)ccc2n1C` (stereo in doubt) [Example 154, rel-(1R,2R,4R,6S)-4-(cyclobutylmethoxy)-2-((2-fluoro-4-(trifluoromethyl)phenyl)carbamoyl)-6-(4-((N,1,2-trimethyl-1H-benzo[d]imidazole)-5-sulfonamido)phenyl)cyclohexane-1-carboxylic acid], the CC50 in series [1] (setting [5]) is 398 nM; in series [1] (setting [6]) it was 398 nM; in series [3], 5.01 nM. The IC50 in series [2] was 3.98 nM. For the same compound, in series [4], the fraction unbound at 4 h, 1 µM was found to be 0.0127.

In the case of `Cc1nc2cc(S(=O)(=O)N(C)c3ccc([C@@H]4CCC[C@H](COc5ccc(C(F)(F)F)cc5)[C@H]4C(=O)O)cc3)cc([C@H]3CCCNC3)c2n1C` (stereo in doubt) [Example 208, rel-(1R,2R,6S)-2-((4-(trifluoromethyl)phenoxy)methyl)-6-(4-((N,1,2-trimethyl-7-((R)-piperidin-3-yl)-1H-benzo[d]imidazole)-5-sulfonamido)phenyl)cyclohexane-1-carboxylic acid, hydrochloride], the CC50 is 1260 nM in series [1] (setting [5]), 1260 nM in series [1] (setting [6]) and 36.3 nM in series [3]. Moreover, the IC50 in series [2] was 1.58 nM. For the same compound, the fraction unbound at 4 h, 1 µM in series [4] amounted to 0.0289.

Take `Cc1nc2cc(S(=O)(=O)N(C)c3ccc([C@H]4C[C@@H](N(C)C)C[C@@H](C(=O)Nc5ccc(C(F)(F)F)cc5F)[C@@H]4C(=O)O)cc3)ccc2n1C` (stereo in doubt) [Example 251, rel-(1R,2R,4R,6S)-4-(dimethylamino)-2-((2-fluoro-4-(trifluoromethyl)phenyl)carbamoyl)-6-(4-((N,1,2-trimethyl-1H-benzo[d]imidazole)-5-sulfonamido)phenyl)cyclohexane-1-carboxylic acid]: the CC50 was 501 nM in series [1] (setting [5]), 501 nM in series [1] (setting [6]) and 138 nM in series [3]. In addition, the IC50 in series [2] is 1 nM. For the same compound, in series [4], the fraction unbound at 4 h, 1 µM worked out at 0.274.

Regarding `Cc1nc2cc(S(=O)(=O)N(C)c3ccc([C@H]4C[C@@H](OC(F)F)C[C@@H](C(=O)Nc5ccc(C(F)(F)F)cc5F)[C@@H]4C(=O)O)cc3)ccc2n1C` (stereo in doubt) [Example 284, rel-(1R,2R,4R,6S)-4-(difluoromethoxy)-2-((2-fluoro-4-(trifluoromethyl)phenyl)carbamoyl)-6-(4-((N,1,2-trimethyl-1H-benzo[d]imidazole)-5-sulfonamido)phenyl)cyclohexane-1-carboxylic acid], the CC50 in series [1] (setting [5]) was 200 nM; in series [1] (setting [6]), 200 nM; in series [3] it was 13.5 nM. Besides, the IC50 in series [2] is 3.16 nM. In series [4], the fraction unbound at 4 h, 1 µM came to 0.068.

With `CC(=O)N(C)[C@@H]1C[C@H](c2ccc(N(C)S(=O)(=O)c3ccc4c(c3)nc(C)n4C)cc2)[C@@H](C(=O)O)[C@H](C(=O)Nc2ccc(C(F)(F)F)cc2F)C1` (stereo in doubt) [Example 292, rel-(1R,2R,4R,6S)-2-((2-fluoro-4-(trifluoromethyl)phenyl)carbamoyl)-4-(N-methylacetamido)-6-(4-((N,1,2-trimethyl-1H-benzo[d]imidazole)-5-sulfonamido)phenyl)cyclohexane-1-carboxylic acid], the values for the CC50 in series [1] (setting [5]), in series [1] (setting [6]) and in series [3] were 794 nM, 794 nM and 178 nM, respectively. Besides, in series [2], the IC50 was 1.58 nM. For the same compound, the fraction unbound at 4 h, 1 µM in series [4] was determined as 0.223.

Regarding `CC(=O)N(C)[C@H]1C[C@H](c2ccc(N(C)S(=O)(=O)c3ccc4c(c3)nc(C)n4C)cc2)[C@@H](C(=O)O)[C@H](C(=O)Nc2ccc(C(F)(F)F)cc2F)C1` (stereo in doubt) [Example 294, rel-(1R,2R,4S,6S)-2-((2-fluoro-4-(trifluoromethyl)phenyl)carbamoyl)-4-(N-methylacetamido)-6-(4-((N,1,2-trimethyl-1H-benzo[d]imidazole)-5-sulfonamido)phenyl)cyclohexane-1-carboxylic acid], the CC50 was 6310 nM in series [1] (setting [5]), 6310 nM in series [1] (setting [6]) and 1620 nM in series [3]. In addition, the IC50 in series [2] was 1.58 nM. Further, the fraction unbound at 4 h, 1 µM in series [4] was determined as 0.256.
